{"source": "patent US7144721B1", "about": "“Treatment of wounds” (The Secretary of the State of Defense, Defence Science and …, priority 1999, dated 2006)", "format_in_all_cases": "biochemical", "key": {"[1]": {"tested_on": "fibronectin, laminin and collagens I, III, IV and V", "experiment": "Degradation of ECM/wound components by larval ES secretions"}, "[2]": {"tested_on": "exopeptidase (metalloproteinase activity) of Lucilia sericata ES", "experiment": "Leucine aminopeptide hydrolysis by Lucilia sericata ES", "description": "(§1) In addition to the predominant serine proteinase activity detected in the ES secretions of Lucilia sericata other less predominant activity is present. The presence of an aspartyl and metalloproteinase activity has been detected though no cysteinyl activity is shown. […] This inhibition reflects the presence of an exopeptidase with a metalloproteinase enzymic nature."}, "[3]": {"tested_on": "chymotrypsin-like serine proteinase activity in Lucilia sericata ES", "experiment": "Suc-Ala-Ala-Phe-AMC hydrolysis by Lucilia sericata ES in the presence of APMSF and PMSF", "method": "(§2) The activity of Lucilia sericata ES (0.25 μg) against Tosyl-Gly-Pro-Arg-AMC (a) and against Suc-Ala-Ala-Phe-AMC (b) in the presence of APMSF and PMSF was investigated using different presentations of ES as follows:\n(b) • E. ES • F. ES pre-incubated with 0.2 mM APMSF • G. ES pre-incubated with 1 mM PMSF\n(§3) The results for (a) reveal the “trypsin-like” serine proteinase activity present in Lucilia sericata ES. The hydrolysis of Tosyl-Glyc-Pro-Arg-AMC (selective for the serine proteinases thrombin and plasmin) was inhibited by 1 mM PMSF and 0.05 mM APMSF. […] The results provide further evidence of the presence in ES of two different sub-classes of serine proteinase."}, "[4]": {"tested_on": "trypsin-like serine proteinase activity in Lucilia sericata ES", "experiment": "Tosyl-Gly-Pro-Arg-AMC hydrolysis by Lucilia sericata ES in the presence of APMSF and PMSF", "method": "as §2\n(a) • A. ES • B. ES pre-incubated with 0.025 mM APMSF • C. ES pre-incubated with 0.05 mM APMSF • D. ES pre-incubated with 1 mM PMSF\nas §3"}, "[5]": {"tested_on": "trypsin-like serine proteinase (aminobenzamidine elution peak) and flow-through proteinases of Lucilia sericata ES", "experiment": "Residual proteinase activity of aminobenzamidine agarose column fractions with APMSF", "method": "The trypsin-like serine proteinase was purified by affinity chromatography of Lucilia sericata ES on aminobenzamidine agarose. The column matrix (1 ml) was equilibrated with 20 ml of 0.025M Tris-HCl buffer pH 8.0 containing 0.5M NaCl. The crude ES (0.5 ml, 70 μg/ml protein) was diluted with an equal volume of buffer before application to the column. Fractions (0.5 ml) were collected throughout the chromatography. After washing with 6.5 times column volume of buffer to remove unbound protein, the free aminobenzamidine ligand (2 ml 400 μM) was used to elicit the elution of bound material. Absorbance readings of the fractions at 280 nm was used to establish the positions of the unbound (flow-through) and bound peaks which were then collected for assay.\nAminobenzamidine agarose binds trypsin-like serine proteinases. Following application of larval enzyme secretions to the column, unbound material passed directly through and was collected as “flow-through” (peak I). The addition of free aminobenzamidine to the column buffer elicited elution of the bound proteinase (peak II). The unbound (flow-through) material contained proteinase activity unaffacted by APMSF (possibly including a a chrymotrypsin-like enzyme), whereas the activity in the aminobenzamidine elution peak was substantially abolished (80%) by APMSF, indicating purification of a trypsin-like serine proteinase activity."}, "[6]": {"tested_on": "Lucilia sericata ES serine proteinase activity", "experiment": "FITC-casein hydrolysis by Lucilia sericata ES at pH8 in the presence of PMSF/APMSF", "method": "The activity of Lucilia sericata ES in FITC-casein hydrolysis at pH8 was investigated using different presentations of ES (0.25 μg) as follows:\nThe proteolytic activity of Lucilia sericata ES was inhibited following pre-incubation with the irreversible serine proteinase inhibitor PMSF. […] PMSF is dissolved in ethanol and the effect of the solvent on the activity of the ES was negligible. In contrast, approximately 50% of residual serine proteinase activity from ES was detected in the cases where the ES had been pre-incubated with the irreversible “trysin-like” specific inhibitor APMSF. Residual activity in the presence of APMSF indicates the presence of a chymotrypsin-like enzyme."}, "[7]": {"tested_on": "aspartyl activity of Lucilia sericata ES", "experiment": "Aspartyl proteinase activity of ES by FITC-casein hydrolysis at pH 5.0", "description": "as §1"}, "[8]": {"experiment": "Lipase activity of ES secretions", "details": "pre-incubated with the inhibitor"}, "[9]": {"details": "ES (0.25 μg) pre-incubated with 0.2 mM inhibitor"}, "[10]": {"details": "ES (0.25 μg) pre-incubated with 1 mM inhibitor"}}, "note": "Square brackets hold non-standard residues; d marks the D form. Peptide text beside a SMILES is read from it. * marks the point of attachment. Sta = CC(C)C[C@H](N)[C@@H](O)CC(=O)O; Isovaleryl = CC(C)CC(=O)*"}
{"compound": "c1cnc2c(c1)ccc1cccnc12", "note": "[1,10-phenanthroline]", "values": [{"measurement": "inhibition of the degradation of laminin and fibronectin by larval secretions", "setting": "[1]", "result": "not significantly"}, {"measurement": "inhibition of leucine aminopeptide hydrolysis", "setting": "[2]", "result": "inhibited"}]}
{"compound": "N=C(N)c1ccc(CS(=O)(=O)F)cc1", "note": "[APMSF, 4-(amidinophenyl) methane sulphonyl fluoride]", "values": [{"measurement": "inhibition of the degradation of laminin and fibronectin by larval secretions", "setting": "[1]", "result": "not significantly"}, {"measurement": "residual activity (%) against Suc-Ala-Ala-Phe-AMC", "setting": "[3]; [9]", "result": 86.8, "unit": "%"}, {"measurement": "residual activity (%) against Tosyl-Gly-Pro-Arg-AMC", "setting": "[4]; ES (0.25 μg) pre-incubated with 0.025 mM inhibitor", "result": 14.3, "unit": "%"}, {"measurement": "residual activity (%) against Tosyl-Gly-Pro-Arg-AMC", "setting": "[4]; ES (0.25 μg) pre-incubated with 0.05 mM inhibitor", "result": 3.6, "unit": "%"}, {"measurement": "activity abolished by inhibitor", "setting": "[5]; aminobenzamidine elution peak (peak II)", "result": 80, "unit": "%"}, {"measurement": "effect of inhibitor on proteinase activity", "setting": "[5]; unbound (flow-through) material (peak I)", "result": "unaffacted"}, {"measurement": "activity (%) of ES in FITC-casein hydrolysis", "setting": "[6]; ES (0.25 μg) pre-incubated with 0.04 mM inhibitor", "result": 43.5, "unit": "%"}, {"measurement": "activity (%) of ES in FITC-casein hydrolysis", "setting": "[6]; ES (0.25 μg) pre-incubated with 0.12 mM inhibitor", "result": 47, "unit": "%"}, {"measurement": "activity (%) of ES in FITC-casein hydrolysis", "setting": "[6]; [9]", "result": 54, "unit": "%"}, {"measurement": "residual serine proteinase activity from ES", "setting": "[6]; ES pre-incubated with APMSF, summary over the concentrations", "result": "approximately 50%"}]}
{"compound": "CC(C)CC(=O)N[C@H](C(=O)N[C@H](C(=O)N[C@@H](CC(C)C)[C@@H](O)CC(=O)N[C@@H](C)C(=O)N[C@@H](CC(C)C)[C@@H](O)CC(=O)O)C(C)C)C(C)C", "note": "[pepstatin A] (Isovaleryl-VV[Sta]A[Sta]-OH)", "values": [{"measurement": "inhibition of aspartyl activity", "setting": "[7]", "result": "successfully inhibited"}]}
{"compound": "O=S(=O)(F)Cc1ccccc1", "note": "[PMSF, phenyl methanesulphonyl fluoride]", "values": [{"measurement": "inhibition of the degradation of laminin and fibronectin by larval secretions", "setting": "[1]", "result": "inhibited"}, {"measurement": "residual activity (%) against Suc-Ala-Ala-Phe-AMC", "setting": "[3]; [10]", "result": 1.3, "unit": "%"}, {"measurement": "residual activity (%) against Tosyl-Gly-Pro-Arg-AMC", "setting": "[4]; [10]", "result": 0, "unit": "%"}, {"measurement": "activity (%) of ES in FITC-casein hydrolysis", "setting": "[6]; [9]", "result": 13.8, "unit": "%"}, {"measurement": "activity (%) of ES in FITC-casein hydrolysis", "setting": "[6]; ES (0.25 μg) pre-incubated with 0.6 mM inhibitor", "result": 18, "unit": "%"}, {"measurement": "lipase activity of ES secretions pre-incubated with inhibitor", "setting": "[8]", "result": "not detected"}]}
